Measured values taken from patent US20200087625A1, “METHODS FOR ISOLATING, EXPANDING AND ADMINISTERING CANCER SPECIFIC CD8+ T CELLS” (priority 2017, published 2020).

Columns and labels:
[1] = Serum cytokine analysis (Luminex) after systemic administration; type: in vivo, BALB/c mice; settings: mouse, in vivo
Description: FIG. 36. […] BALB/c mice (n=5) were i.p. administered IV270 (200 μg=185 nmol/injection) or […] (58 μg=185 nmol/injection) and sera were collected 2, 4, 6, and 24 hours following the administration. The levels of TNFα, IL-12, and IP-IO were measured by Luminex assay. *P<0.05, **P<0.01 by two way ANOVA using a Bonferroni post hoc test comparing treatment groups.
The sera were collected from mice receiving […] of 1V136, 1V270 or vehicle 2, 4, 6, and 24 hours after i.p. administration (15). Cytokine levels in sera were determined by Luminex bead assays (MILLIPLEX™ MAP kit, Millip ore, Billerica, Mass.).

[2] = system: metastatic lung tumors; settings: intratracheal administration; cited from earlier work
[3] = system: dermatological tumors; settings: cited from earlier work

SMILES: COCCOc1nc(N)c2[nH]c(=O)n(Cc3ccccc3)c2n1 [1V136, reference compound]
- systemic proinflammatory cytokines [1]: high levels of systemic proinflammatory cytokines

SMILES: CCCCNc1nc(N)c2[nH]c(=O)n(Cc3ccc(C)nc3)c2n1 [SM276001]
- metastatic lung tumors [2]: suppress metastatic lung tumors

SMILES: CC(C)Cn1cnc2c(N)nc3ccccc3c21 [imiquimod]
- clinical efficacy ([3]; patients with basal cell carcinoma and actinic keratosis, topical): favorable clinical efficacy
- toxicity on systemic administration ([3]; systemic administration): immunotoxicity induced by systemic administration
